Experimental data from US9999622B2, “Pyrazolothiazole compound and medicine comprising same” (NIPPON SHINYAKU CO., LTD., priority 2014, dated 2018).
Counter-ions that a name gives are not always drawn.

Experiments:
[1] = target: T1, JAK1 (Homo sapiens, UniProt P23458); experiment: JAK tyrosine kinase inhibitory activity in the presence of 1 mM ATP (ELISA), JAK1; type: biochemical
T1 construct: purchased Carna Biosciences, Inc
Procedure, shortened: (§1)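 Kinase reactions ran on streptavidin-coated plates in 15 mM Tris-HCl pH 7.5, 0.01% Tween-20, 1 mM DTT, 30 °C for 1 h. Enzyme was prediluted to 7.5 nM (JAK1) or 0.75 nM (JAK2, JAK3) before addition. Phosphotyrosine was detected with HRP anti-pTyr antibody and TMB at A450.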

[2] = target: T2, JAK2 (Homo sapiens, UniProt O60674); experiment: JAK tyrosine kinase inhibitory activity in the presence of 1 mM ATP (ELISA), JAK2; type: biochemical
T2 construct: purchased Carna Biosciences, Inc
T2 sequence (O60674 whole entry): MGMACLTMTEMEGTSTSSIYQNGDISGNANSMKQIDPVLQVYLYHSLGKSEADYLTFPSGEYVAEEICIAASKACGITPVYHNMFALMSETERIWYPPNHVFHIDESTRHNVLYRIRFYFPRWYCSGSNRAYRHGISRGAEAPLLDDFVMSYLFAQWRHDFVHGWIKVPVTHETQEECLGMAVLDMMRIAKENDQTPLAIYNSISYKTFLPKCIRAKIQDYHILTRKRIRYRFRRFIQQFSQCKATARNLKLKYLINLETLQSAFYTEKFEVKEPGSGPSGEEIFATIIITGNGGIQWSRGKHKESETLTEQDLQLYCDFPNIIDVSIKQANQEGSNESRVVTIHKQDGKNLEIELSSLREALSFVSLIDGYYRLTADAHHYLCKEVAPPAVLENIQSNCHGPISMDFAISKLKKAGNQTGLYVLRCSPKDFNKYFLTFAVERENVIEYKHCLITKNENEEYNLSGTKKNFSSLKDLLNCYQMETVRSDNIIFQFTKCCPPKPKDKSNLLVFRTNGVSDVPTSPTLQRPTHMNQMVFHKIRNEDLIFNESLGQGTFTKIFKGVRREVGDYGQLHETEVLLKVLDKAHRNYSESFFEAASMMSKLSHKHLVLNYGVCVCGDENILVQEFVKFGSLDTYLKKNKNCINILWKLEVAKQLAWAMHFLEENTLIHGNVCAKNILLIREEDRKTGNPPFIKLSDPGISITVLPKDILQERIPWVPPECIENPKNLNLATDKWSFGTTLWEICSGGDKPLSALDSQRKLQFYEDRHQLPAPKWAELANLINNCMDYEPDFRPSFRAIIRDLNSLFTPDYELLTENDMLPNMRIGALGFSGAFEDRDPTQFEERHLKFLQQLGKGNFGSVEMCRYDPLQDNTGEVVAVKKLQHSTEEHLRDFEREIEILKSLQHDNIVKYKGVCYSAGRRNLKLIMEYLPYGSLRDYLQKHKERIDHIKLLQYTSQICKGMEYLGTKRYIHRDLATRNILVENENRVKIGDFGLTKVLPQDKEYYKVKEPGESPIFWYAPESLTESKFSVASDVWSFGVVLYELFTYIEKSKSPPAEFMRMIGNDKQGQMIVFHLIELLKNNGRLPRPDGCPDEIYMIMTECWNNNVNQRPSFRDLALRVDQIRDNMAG
Procedure, shortened: as §1

[3] = target: T3, JAK3 (Homo sapiens, UniProt P52333); experiment: JAK tyrosine kinase inhibitory activity in the presence of 1 mM ATP (ELISA), JAK3; type: biochemical
T3 construct: purchased Carna Biosciences, Inc
T3 sequence (P52333 1-1124): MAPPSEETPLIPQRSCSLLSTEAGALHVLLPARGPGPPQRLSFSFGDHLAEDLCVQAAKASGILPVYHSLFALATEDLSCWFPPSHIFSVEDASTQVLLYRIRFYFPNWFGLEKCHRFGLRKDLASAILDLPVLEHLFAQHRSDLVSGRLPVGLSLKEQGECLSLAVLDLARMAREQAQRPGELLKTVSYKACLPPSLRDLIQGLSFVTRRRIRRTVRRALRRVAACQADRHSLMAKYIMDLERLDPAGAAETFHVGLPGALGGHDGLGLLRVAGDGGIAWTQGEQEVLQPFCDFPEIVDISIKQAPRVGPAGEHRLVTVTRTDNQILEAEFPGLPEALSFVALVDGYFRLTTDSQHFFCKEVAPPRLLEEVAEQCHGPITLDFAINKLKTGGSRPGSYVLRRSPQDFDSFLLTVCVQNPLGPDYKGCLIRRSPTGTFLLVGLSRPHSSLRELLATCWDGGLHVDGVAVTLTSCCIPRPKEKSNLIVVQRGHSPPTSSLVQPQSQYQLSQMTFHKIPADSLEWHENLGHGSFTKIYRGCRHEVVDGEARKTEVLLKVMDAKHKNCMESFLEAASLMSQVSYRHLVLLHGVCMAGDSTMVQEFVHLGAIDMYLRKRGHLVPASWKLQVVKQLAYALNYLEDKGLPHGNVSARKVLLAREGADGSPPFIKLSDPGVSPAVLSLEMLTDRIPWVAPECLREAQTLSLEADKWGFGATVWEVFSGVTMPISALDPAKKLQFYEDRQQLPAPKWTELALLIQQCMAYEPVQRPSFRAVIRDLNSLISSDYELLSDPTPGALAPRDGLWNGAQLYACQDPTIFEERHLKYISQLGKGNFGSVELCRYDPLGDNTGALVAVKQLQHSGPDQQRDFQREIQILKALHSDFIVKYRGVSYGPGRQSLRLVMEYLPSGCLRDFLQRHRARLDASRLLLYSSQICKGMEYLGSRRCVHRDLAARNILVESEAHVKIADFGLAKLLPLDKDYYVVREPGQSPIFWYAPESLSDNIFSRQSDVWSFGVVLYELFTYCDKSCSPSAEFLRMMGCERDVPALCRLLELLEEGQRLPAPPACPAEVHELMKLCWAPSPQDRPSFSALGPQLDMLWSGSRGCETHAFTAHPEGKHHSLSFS
Procedure, shortened: as §1

[4] = system: Aspergillus-induced airway inflammation model; experiment: Inhibitory effect on Aspergillus-induced airway inflammation model; type: in vivo; settings: mice; for inhibition in vivo at 10000 µg/mL, 100 mg/kg: Mus musculus, Eosinophil, po, 240 h, 10 mg/mL suspension at 10 mL/kg twice a day Day 0 to Day 9, BALF collected at Day 10, read-out: Inhibition rate on count of invasive eosinophil in BALF (%); for Inhibition rate on count of invasive eosinophil in BALF (%): oral, 10 mg/mL suspension at 10 mL/kg twice a day Day 0 to Day 9, BALF collected at Day 10
Method: Aspergillus fumigatus extracts (Greer laboratories, Inc.) were adjusted to 400 μg/mL with PBS. The Aspergillus fumigatus solutions thus prepared were administered to mice as nasal drops (50 μL) on Day 0, Day 1, Day 7 and Day 8. The nasal drop was administered one hour after the administration of test compounds in the morning. The test compound was administered twice a day in the morning and evening of Day 0 to Day 9. The test compound was suspended in 0.5% methylcellulose at 10 mg/mL, and orally administered at the dosage of 10 mL/kg. The bronchoalveolar lavage fluid (BALF) was collected at Day 10, and the total white blood cell count in BALF was measured using Celltac (NIHON KOHDEN). The ratio of eosinophil in total white blood cell was calculated using ADVIA 120 (Siemens Healthcare Diagnostics), and the ratio was multiplied by the total white blood cell count to determine the eosinophil count in BALF. The inhibition rate of the test compound was determined, assuming the inhibitory ratio in the treatment with Aspergillus fumigatus extract and 0.5% methylcellulose as 0% and the inhibitory ratio in the treatment without Aspergillus fumigatus extract but with 0.5% methylcellulose as 100%.

T1 sequence (P23458 whole entry): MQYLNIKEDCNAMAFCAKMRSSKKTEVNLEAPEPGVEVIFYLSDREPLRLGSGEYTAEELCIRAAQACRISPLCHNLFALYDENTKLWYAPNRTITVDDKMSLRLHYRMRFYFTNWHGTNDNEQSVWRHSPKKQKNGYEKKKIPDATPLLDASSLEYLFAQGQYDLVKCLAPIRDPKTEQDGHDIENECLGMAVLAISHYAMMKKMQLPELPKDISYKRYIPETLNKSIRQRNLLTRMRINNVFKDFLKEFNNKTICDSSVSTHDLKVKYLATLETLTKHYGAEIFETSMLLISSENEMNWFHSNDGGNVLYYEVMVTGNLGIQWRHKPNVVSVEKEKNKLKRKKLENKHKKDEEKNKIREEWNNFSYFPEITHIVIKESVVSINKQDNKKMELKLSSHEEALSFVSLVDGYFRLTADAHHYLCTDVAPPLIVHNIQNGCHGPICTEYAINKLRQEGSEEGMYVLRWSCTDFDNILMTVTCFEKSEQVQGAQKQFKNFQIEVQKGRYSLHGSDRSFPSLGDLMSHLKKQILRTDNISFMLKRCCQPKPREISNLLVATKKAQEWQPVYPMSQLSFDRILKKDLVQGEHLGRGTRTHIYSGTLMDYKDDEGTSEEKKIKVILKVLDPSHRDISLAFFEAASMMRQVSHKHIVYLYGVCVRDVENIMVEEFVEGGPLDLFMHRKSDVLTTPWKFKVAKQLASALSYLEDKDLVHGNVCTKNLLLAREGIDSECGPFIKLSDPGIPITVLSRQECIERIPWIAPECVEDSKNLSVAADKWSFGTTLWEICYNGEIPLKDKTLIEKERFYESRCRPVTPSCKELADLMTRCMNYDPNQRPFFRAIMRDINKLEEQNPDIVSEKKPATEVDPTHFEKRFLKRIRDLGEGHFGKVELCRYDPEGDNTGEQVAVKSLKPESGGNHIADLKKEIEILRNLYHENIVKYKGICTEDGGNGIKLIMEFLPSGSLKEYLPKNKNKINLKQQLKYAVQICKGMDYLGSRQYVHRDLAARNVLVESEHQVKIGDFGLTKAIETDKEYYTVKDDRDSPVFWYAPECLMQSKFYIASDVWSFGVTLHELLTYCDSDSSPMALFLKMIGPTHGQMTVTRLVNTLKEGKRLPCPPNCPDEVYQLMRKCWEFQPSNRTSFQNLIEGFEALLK

Compound	IC50 [1] [nM]	IC50 [2] [nM]	IC50 [3] [nM]	inhibition in vivo at 10000 µg/mL, 100 mg/kg [4] [%]	Inhibition rate on count of invasive eosinophil in BALF (%) [4] [%]	Inhibition rate on count of invasive eosinophil in BALF (%) ([4]; hydrochloride)
COC(=O)NC1CCN(C(=O)c2cc(N[C@@H](C)C3CC3)nc(-c3cnn4ccsc34)n2)CC1 [Example 26, Methyl (1-{[6-{[(1S)-1-cycloproropylethyl]amino}-2-(pyrazolo[5,1-b][1,3]thiazol-7-yl)pyrimidin-4-yl]carbonyl}piperidin-4-yl)carbamate]	75	2100	2100	58		
COC(=O)NC1CCN(C(=O)c2cc(N[C@@H](C)C(C)(C)C)nc(-c3cnn4ccsc34)n2)CC1 [Example 22, Methyl (1-{[6-{[(2S)-3,3-dimethylbutan-2-yl]amino}-2-(pyrazolo[5,1-b][1,3]thiazol-7-yl)pyrimidin-4 yl]carbonyl}piperidin-4-yl)carbamate]	130	800	3700	57		
COC(=O)NC1CCN(C(=O)c2cc(N[C@@H](C)C3CC3)nc(-c3cnn4ccsc34)n2)CC1.Cl [Example 27, Methyl (1-{[6-{[(1S)-1-cyclopropylethyl]amino}-2-(pyrazolo[5,1-b][1,3]thiazol-7-yl)pyrimidin-4-yl]carbonyl}piperidin-4-yl)carbamate hydrochloride]	140	2500	4300		62	
C[C@H](Nc1cc(C(=O)N2CCC(O)CC2)nc(-c2cnn3ccsc23)n1)C1CC1 [Example 20, [6-{[(1S)-1-Cyclopropylethyl]amino}-2-(pyrazolo[5,1-b][1,3]thiazol-7-yl)pyrimidin-4-yl](4-hydroxypiperidin-1-yl)methanone hydrochloride]	1400	4700	4200	61		
COC(=O)NC1CCN(C(=O)c2cc(NCC(C)(C)C)nc(-c3cnn4ccsc34)n2)CC1 [Example 87, Methyl [1-({6-[(2,2-dimethylpropyl)amino]-2-(pyrazolo[5,1-b][1,3]thiazol-7-yl)pyrimidin-4-yl}carbonyl)piperidin-4-yl]carbamate hydrochloride]	250	1600	9500	24		
COC(=O)NC1CCN(C(=O)c2cc(N[C@@H](C)C(C)C)nc(-c3cnn4ccsc34)n2)CC1 [Example 25, Methyl (l-{[6-{[(2S)-3-methylbutan-2-yl]amino}-2-(pyrazolo[5,1-b][1,3]thiazol-7-yl)pyrimidin-4-yl]carbonyl}piperidin-4-yl)carbamate hydrochloride]	200	800	2000	30		
CC[C@@H](C)Nc1cc(C(=O)N2CCC(NC(=O)OC)CC2)nc(-c2cnn3ccsc23)n1 [Example 126, Methyl [1-({6-[(2R)-butan-2-ylamino]-2-(pyrazolo[5,1-b][1,3]thiazol-7-yl)pyrimidin-4-yl}carbonyl)piperidin-4-yl]carbamate]	820	> 10000	> 10000	57		
C[C@@H](Nc1cc(C(=O)N2CCC(NC(=O)OCC(F)F)CC2)nc(-c2cnn3ccsc23)n1)C1CC1 [Example 96, 2,2-Difluoroethyl (1-{[6-{[(1R)-1-cyclopropylethyl]amino}-2-(pyrazolo[5,1-b][1,3]thiazol-7-yl)pyrimidin-4-yl]carbonyl}piperidin-4-yl)carbamate hydrochloride]	250	1000	2200	51		
CCOC(=O)NC1CCN(C(=O)c2cc(N[C@H](C)C3CC3)nc(-c3cnn4ccsc34)n2)CC1 [Example 74, Ethyl (1-{[6-{[(1R)-1-cycloproropylethyl]amino}-2-(pyrazolo[5,1-b][1,3]thiazol-7-yl)pyrimidin-4-yl]carbonyl}piperidin-4-yl)carbamate hydrochloride]	95	3100	2600			34
